pIC50: −log10 of the molar value.

The nature of the assay: Displacement of [125I]gastrin from guinea pig gastric glands.
Turning to `O=C(NC1N=C(c2ccccc2F)c2ccccc2-n2cnnc21)c1cc2ccccc2[nH]1` (stereo not drawn) [1H-Indole-2-carboxylic acid [6-(2-fluoro-phenyl)-4H-2,3,5,10b-tetraaza-benzo[e]azulen-4-yl]-amide(0.1EtOAc)], the pIC50 (commonly the IC50 on a negative log10 scale, so that one unit is a factor of ten) is 7.19.

Compound `O=C(NC1N=C(c2ccccc2F)c2ccccc2-n2cnnc21)OCc1ccccc1` (stereo not drawn) [[6-(2-Fluoro-phenyl)-4H-2,3,5,10b-tetraaza-benzo[e]azulen-4-yl]-carbamic acid benzyl ester] had a pIC50 of 5.52.

`Fc1ccccc1C1=N[C@H](Cc2c[nH]c3ccccc23)c2nncn2-c2ccccc21` [6-(2-Fluoro-phenyl)-4-(1H-indol-3-ylmethyl)-4H-2,3,5,10b-tetraaza-benzo[e]azulene(0.5CHCl3)] gave a pIC50 of 4.60. Compared with the last compound, the pIC50 is 0.92 log units lower.

`Cc1nnc2n1-c1ccc(Cl)cc1C(c1ccccc1Cl)=NC2` [Halcion] showed a pIC50 of less than 4.00.

Turning to `Cc1nnc2n1-c1ccccc1C(c1ccccc1F)=NC2NC(=O)c1cc2ccccc2[nH]1` (stereo not drawn) [1H-Indole-2-carboxylic acid [6-(2-fluoro-phenyl)-1-methyl-4H-2,3,5,10b-tetraaza-benzo[e]azulen-4-yl]-amide(0.2EtOAc)], the negative-log IC50 (pIC50) is 8.15.

The compound `Fc1ccccc1C1=N[C@H](Cc2c[nH]c3ccccc23)c2nnc(C(Cl)(Cl)Cl)n2-c2ccccc21` [6-(2-Fluoro-phenyl)-4-(1H-indol-3-ylmethyl)-1-trichloromethyl-4H-2,3,5,10b-tetraaza-benzo[e]azulene(0.5CHCl3)] had a pIC50 of less than 4.00.

The compound `O=C(Nc1ccc(Cl)cc1)NC1N=C(c2ccccc2)c2ccccc2-n2cnnc21` (stereo not drawn) [1-(4-Chloro-phenyl)-3-(6-phenyl-4H-2,3,5,10b-tetraaza-benzo[e]azulen-4-yl)-urea] gave a pIC50 of 6.42.

Compound `Fc1ccccc1C1=N[C@H](Cc2c[nH]c3ccccc23)c2nnc(-c3ccccc3)n2-c2ccccc21` [6-(2-Fluoro-phenyl)-4-(1H-indol-3-ylmethyl)-1-phenyl-4H-2,3,5,10b-tetraaza-benzo[e]azulene(0.55CHCl3)] gave a pIC50 of less than 4.00.

`Cc1nnc2n1-c1ccc(Cl)cc1C(c1ccccc1)=NC2` showed a pIC50 of less than 4.00.

`O=C(NC1N=C(c2ccccc2)c2ccccc2-n2cnnc21)OCc1ccccc1` (stereo not drawn) [(6-Phenyl-4H-2,3,5,10b-tetraaza-benzo[e]azulen-4-yl)-carbamic acid benzyl ester(0.25EtOAc)]: the negative logarithm of the IC50 (pIC50) was 5.32.

Compound `Cc1nnc2n1-c1ccccc1C(c1ccccc1)=NC2NC(=O)Nc1ccc(Cl)cc1` (stereo not drawn) [1-(4-Chloro-phenyl)-3-(1-methyl-6-phenyl-4H-2,3,5,10b-tetraaza-benzo[e]azulen-4-yl)-urea] showed a pIC50 of 6.42.

In turn, `CN(C)Cc1nnc2n1-c1ccccc1C(c1ccccc1F)=N[C@@H]2Cc1c[nH]c2ccccc12` [[6-(2-Fluoro-phenyl)-4-(1H-indol-3-ylmethyl)-4H-2,3,5,10b-tetraaza-benzo[e]azulen-1-ylmethyl]-dimethyl-amine(0.22CHCl3)] had a pIC50 of 4.22.

Compound `O=C(NC1N=C(c2ccccc2F)c2ccccc2-n2cnnc21)c1ccc(Cl)cc1` (stereo not drawn) [4-Chloro-N-[6-(2-fluoro-phenyl)-4H-2,3,5,10b-tetraaza-benzo[e]azulen-4-yl]-benzamide] had a pIC50 of 5.62.
